Data published in ChEMBL document CHEMBL6092158, “Green synthesis of neuroprotective spirocyclic chalcone derivatives and their role in protecting against traumatic optic nerve injury” (Eur J Med Chem, 2024).
The source made the active and inactive calls. The calls are words filed in the database; no cut-off is given here.

Tests used:
[1] = tested on: R28; test: Cytoprotective activity against hydrogen peroxide-induced cytotoxicity in rat R28 cells assessed as increase in cell viability at 10 uM preincubated for 24 hrs followed by incubation with H2O2 for 24 hrs by MTT assay; assay type: functional, cell-based
[2] = tested on: R28; test: Cytoprotective activity against glutamate-induced cytotoxicity in rat R28 cells assessed as increase in cell viability at 10 uM incubated for 24 hrs in presence of glutamate by MTT assay; assay type: functional, cell-based

Structure (SMILES)	Activity [1]	Activity [2]
CN1C[C@H](c2ccc(O)c(O)c2)[C@@H](C(=O)c2cc(C(F)(F)F)cc(C(F)(F)F)c2)[C@]12C(=O)Nc1ccccc12	inactive	inactive
CN1C[C@H](c2ccc(O)c(O)c2)[C@@H](C(=O)c2cccc(O)c2)[C@]12C(=O)Nc1ccccc12	Active	Active
CN1C[C@H](c2ccc(O)c(O)c2)[C@@H](C(=O)c2ccc(S(C)(=O)=O)cc2)[C@]12C(=O)Nc1ccccc12	inactive	inactive
CN1C[C@H](c2ccc(O)c(O)c2)[C@@H](C(=O)c2cccc(C(F)(F)F)c2)[C@]12C(=O)Nc1ccccc12	inactive	inactive
CN1C[C@H](c2ccc(O)c(O)c2)[C@@H](C(=O)c2ccc(Br)cc2F)[C@]12C(=O)Nc1ccccc12	Active	Active
COc1cc(C(=O)[C@@H]2[C@@H](c3ccc(O)c(O)c3)CN(C)[C@@]23C(=O)Nc2ccccc23)cc(OC)c1OC	Active	Active
CN1C[C@H](c2ccc(O)c(O)c2)[C@@H](C(=O)c2cccc(Br)c2)[C@]12C(=O)Nc1ccccc12	Active	Active
CN1C[C@H](c2ccc(O)c(O)c2)[C@@H](C(=O)c2ccc(Cl)cc2Cl)[C@]12C(=O)Nc1ccccc12	Active	Active
CN1C[C@H](c2ccc(O)c(O)c2)[C@@H](C(=O)c2ccccc2C(F)(F)F)[C@]12C(=O)Nc1ccccc12	inactive	inactive
COc1cc(C(=O)[C@@H]2[C@@H](c3ccc(O)c(O)c3)CN(C)[C@@]23C(=O)Nc2ccccc23)ccc1O	Active	Active
CN1C[C@H](c2ccc(O)c(O)c2)[C@@H](C(=O)c2ccc(Cl)cc2)[C@]12C(=O)Nc1ccccc12	Active	Active
